Assay results reported in ChEMBL document CHEMBL1138945, “Development of N-4,6-pyrimidine-N-alkyl-N'-phenyl ureas as orally active inhibitors of lymphocyte specific tyrosine kinase” (Bioorg Med Chem Lett, 2006).
Values after ≈ are worked out from the molar mass of the structure shown.

How the values were obtained:
[1] = target: Tyrosine-protein kinase Lck (Homo sapiens, UniProt P06239); test: Inhibition of Lck
[2] = Oral bioavailability in rat; format: ADME, organism-based; conditions: in vivo
[3] = Cmax in orally dosed rat; format: ADME, organism-based; set-up: route oral; conditions: in vivo, po
[4] = Aqueous solubility of the compound; format: physicochemical; conditions: buffer
[5] = test system: Jurkat; test: Inhibition of IL2 production in Jurkat E6-1 T cell line; format: functional, cell-based; conditions: Homo sapiens
[6] = Intrinsic clearance in rat hepatocytes after 1 hr at 1 uM; format: ADME, cell-based, Liver, Hepatocyte
[7] = test system: Rattus norvegicus; test: Inhibition of adjuvant-induced hind paw swelling in Lewis rat at 25 mg/kg, po after 7 days relative to control; format: functional; conditions: 168 h

Chain of Tyrosine-protein kinase Lck (P06239 whole entry): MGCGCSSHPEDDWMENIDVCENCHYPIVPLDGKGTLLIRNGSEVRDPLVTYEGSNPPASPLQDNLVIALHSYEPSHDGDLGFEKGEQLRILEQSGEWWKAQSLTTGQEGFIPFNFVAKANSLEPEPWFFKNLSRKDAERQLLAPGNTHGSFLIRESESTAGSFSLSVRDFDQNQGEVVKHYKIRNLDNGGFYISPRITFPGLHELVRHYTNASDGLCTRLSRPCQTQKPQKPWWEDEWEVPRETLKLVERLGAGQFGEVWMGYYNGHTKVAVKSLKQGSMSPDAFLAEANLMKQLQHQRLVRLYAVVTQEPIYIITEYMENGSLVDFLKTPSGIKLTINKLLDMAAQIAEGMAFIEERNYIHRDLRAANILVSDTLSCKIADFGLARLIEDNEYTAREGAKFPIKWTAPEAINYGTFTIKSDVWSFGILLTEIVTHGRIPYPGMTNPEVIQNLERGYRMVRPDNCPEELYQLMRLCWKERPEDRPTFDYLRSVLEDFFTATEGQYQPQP

SMILES | IC50 [1] [µM] | other results
CN(C)CCCN(C(=O)Nc1c(Cl)cccc1Cl)c1cc(Nc2ccc(N3CCOCC3)cc2)ncn1 | 0.155 | 
CN(C)CCCNc1cc(N(C)C(=O)Nc2c(Cl)cccc2Cl)ncn1 | 5.99 | 
O=C(Nc1c(Cl)cccc1Cl)N(c1ccncc1)c1cc(Nc2ccc(N3CCOCC3)cc2)ncn1 | > 10 | 
Cc1cccc(Cl)c1NC(=O)N(C)c1cc(Nc2ccc(N3CCOCC3)cc2)ncn1 | 0.19 | 
CN(C(=O)Nc1ccccc1Cl)c1cc(Nc2ccc(N3CCOCC3)cc2)ncn1 | 4.29 | 
CN(C(=O)Nc1c(Cl)cccc1Cl)c1cc(Nc2ccc(F)cc2)ncn1 | 3.86 | 
CCN(CC)CCNc1cc(N(C)C(=O)Nc2c(Cl)cccc2Cl)ncn1 | > 10 | 
CN(C(=O)Nc1c(Cl)cccc1Cl)c1cc(NC2CCOCC2)ncn1 | > 10 | 
Cc1cccc(Cl)c1NC(=O)N(C)c1cc(Nc2ccc(N3CCN(C)CC3)cc2)ncn1 | 0.009 | solubility [4]: 2 µg/mL (≈ 4.29 µM); IC50 [5]: 0.749 µM
CN1CCN(c2ccc(Nc3cc(N(C)C(=O)Nc4ccccc4Cl)ncn3)cc2)CC1 | 0.708 | 
CN1CCN(c2ccc(Nc3cc(N(C)C(=O)Nc4c(Cl)cccc4Cl)ncn3)cc2)CC1 | 0.006 | 
CNc1cc(N(CCCN(C)C)C(=O)Nc2c(Cl)cccc2Cl)ncn1 | 2.35 | 
CN1CCN(N(C(=O)Nc2c(Cl)cccc2Cl)c2cc(Nc3ccc(N4CCOCC4)cc3)ncn2)CC1 | 0.23 | 
CN(C(=O)Nc1c(Cl)cccc1Cl)c1cc(Nc2ccc(N3CCOCC3)cc2)ncn1 | 0.301 | bioavailability [2]: 0%; Cmax [3]: 9 ng/mL; solubility [4]: 3 µg/mL (≈ 6.34 µM); IC50 [5]: 2.9 µM; CLint scaled at 1 µM [6]: 2.88 L/h/kg
CN(C(=O)Nc1c(Cl)cccc1Cl)c1cc(NCCN2CCOCC2)ncn1 | > 10 | 
Cc1ccc(O)cc1NC(=O)N(C)c1cc(Nc2ccc(N3CCOCC3)cc2)ncn1 | 0.004 | 

The next lines start with results.

IC50 [1] [µM] | SMILES | other results
0.003 | CCN(CC)CCOc1ccc(Nc2cc(N(C)C(=O)Nc3cc(O)ccc3C)ncn2)cc1 | bioavailability [2]: 1%; Cmax [3]: 3 ng/mL; solubility [4]: 41 µg/mL (≈ 88.3 µM); IC50 [5]: 0.064 µM; CLint scaled at 1 µM [6]: 6.48 L/h/kg
3.13 | CCN(CC)c1ccc(Nc2cc(N(C)C(=O)Nc3ccccc3Cl)ncn2)cc1 | 
> 10 | CCN(CC)CCOc1ccc(Nc2cc(N(C)C(=O)Nc3ccccc3OC)ncn2)cc1 | 
1.82 | CN(C(=O)Nc1ccccc1Cl)c1cc(Nc2ccc(F)cc2)ncn1 | 
0.032 | CCN(CC)CCOc1ccc(Nc2cc(N(C)C(=O)Nc3cc(C(=O)Nc4cccc(C(F)(F)F)c4)ccc3C)ncn2)cc1 | 
0.149 | CCN(CC)CCOc1ccc(Nc2cc(N(C)C(=O)Nc3cc(NC(=O)c4cc5ccccc5n4C)ccc3C)ncn2)cc1 | 
0.028 | CCN(CC)CCOc1ccc(Nc2cc(N(C)C(=O)Nc3c(C)cccc3Cl)ncn2)cc1 | solubility [4]: 34 µg/mL (≈ 70.4 µM); IC50 [5]: 3.1 µM; CLint scaled at 1 µM [6]: 1.5 L/h/kg
0.096 | CCN(CC)CCOc1ccc(Nc2cc(N(C)C(=O)Nc3c(Cl)cccc3C(F)(F)F)ncn2)cc1 | 
0.087 | CCN(CC)CCOc1ccc(Nc2cc(N(C)C(=O)Nc3c(Cl)cccc3Cl)ncn2)cc1 | bioavailability [2]: 66%; Cmax [3]: 394 ng/mL; solubility [4]: 38 µg/mL (≈ 75.5 µM); IC50 [5]: 0.862 µM; inhibition in vivo at 25 mg/kg [7]: 63%; CLint scaled at 1 µM [6]: 2.4 L/h/kg
0.229 | CCN(CC)CCOc1ccc(Nc2cc(N(CCCN(C)C)C(=O)Nc3c(Cl)cccc3Cl)ncn2)cc1 | 
4.49 | CCN(CC)c1ccc(Nc2cc(N(CCCN(C)C)C(=O)Nc3ccccc3Cl)ncn2)cc1 | 
2.58 | CCN(CC)CCOc1ccc(Nc2cc(N(C)C(=O)Nc3cc(OC)ccc3C)ncn2)cc1 | 
0.971 | CCN(CC)c1ccc(Nc2cc(N(CCCN(C)C)C(=O)Nc3c(C)cccc3Cl)ncn2)cc1 | 
0.418 | CCN(CC)CCOc1ccc(Nc2cc(N(C)C(=O)Nc3c(F)cccc3F)ncn2)cc1 | 
0.052 | CCN(CC)CCOc1ccc(Nc2cc(N(C)C(=O)Nc3cc(NC(=O)c4cc5ccccc5s4)ccc3C)ncn2)cc1 | 
0.003 | CCN(CC)CCOc1ccc(Nc2cc(N(C)C(=O)Nc3cc(NC(=O)c4cccc(C(F)(F)F)c4)ccc3C)ncn2)cc1 | solubility [4]: 3 µg/mL (≈ 4.72 µM); IC50 [5]: < 0.01 µM
0.004 | CCN(CC)CCOc1ccc(Nc2cc(N(C)C(=O)Nc3cc(C(=O)Nc4cc(C(C)(C)C)on4)ccc3C)ncn2)cc1 | solubility [4]: 1 µg/mL (≈ 1.63 µM); IC50 [5]: < 0.01 µM
> 10 | CCN(CC)c1ccc(Nc2cc(N(Cc3ccccc3)C(=O)Nc3ccccc3Cl)ncn2)cc1 | 
> 10 | CCN(CC)CCOc1ccc(N(C(=O)Nc2c(Cl)cccc2Cl)c2cc(NC)ncn2)cc1 | 
1.45 | Cc1cccc(Cl)c1NC(=O)N(Cc1ccccc1)c1cc(Nc2ccc(F)cc2)ncn1 | 
> 10 | CCN(CC)c1ccc(Nc2cc(N(Cc3ccc(N(C)C)cc3)C(=O)Nc3ccccc3Cl)ncn2)cc1 | 
